Test results: patent US5830909A (American Cyanamid Company, priority 1996, dated 1998)
Where a name gives a salt, the structure may show the parent alone. Values belong to the molecule of their own block, whether it stands above or below them.

Key:
adipocyte AII receptor = assay: Epididymal adipocyte AII receptor binding (Bmax) after two weeks oral treatment; type: in vivo, rat; conditions: 4 rats/group, oral once daily for 2 weeks
Description: (§1) Body weight and food intake are monitored daily. At the end of two weeks, the rats are sacrificed and tissues are weighed. Adipocyte membranes are prepared by collagenase digestion, homogenization and centrfugation.
Binding is initiated by suspending the adipocyte membranes in 0.25% BSA buffer (bovine serum albumin, 50 mM Tris HCl, 5 mM MgCl2,pH 7.4) to a final concentration of 5 ug protein/10 ul buffer. […] The filters are placed in tubes, and radioactivity measured in a gamma scintillation counter programmed to correct for the half-life of the isotope. Using this experimental protocol, both the affinity (KD) and number of binding sites (Bmax) for angiotensin II on the adipocyte membrane can be calculated.

epididymal adipocytes = assay: Epididymal adipocyte cell volume after two weeks oral treatment; type: in vivo, rat; conditions: 4 rats/group, oral once daily for 2 weeks
Description: as §1, with “centrfugation. […] Of the organs sampled, the combined largest relative and quantitative change in weight was in the adipose tissue.” for “centrfugation.”

[1] = type: in vivo, rat; conditions: 15 mg/kg once a day by gavage, two weeks; for Avg. Daily Food Intake / Avg. Weight Gain / Epididymal Fat Weight / Final Body Weight / Retroperitoneal Fat Weight: n = 6
Description: as §1, with “centrfugation. […] Of the organs sampled, the combined largest relative and quantitative change in weight was in the adipose tissue.” for “centrfugation.”

AII receptor [2] = target: T1, AII receptor (Rattus norvegicus, UniProt P25095); assay: Displacement of 125I[Sar,Ile]AII binding in rat epididymal fat cell membranes
T1 construct: adipose tissue from the epididymal and retroperitoneal depots is quickly excised; from tissue; host or cells: membranes of collagenase-isolated adipocytes from epididymal and retroperitoneal fat of male Sprague-Dawley rats
T1 sequence (P25095 1-359): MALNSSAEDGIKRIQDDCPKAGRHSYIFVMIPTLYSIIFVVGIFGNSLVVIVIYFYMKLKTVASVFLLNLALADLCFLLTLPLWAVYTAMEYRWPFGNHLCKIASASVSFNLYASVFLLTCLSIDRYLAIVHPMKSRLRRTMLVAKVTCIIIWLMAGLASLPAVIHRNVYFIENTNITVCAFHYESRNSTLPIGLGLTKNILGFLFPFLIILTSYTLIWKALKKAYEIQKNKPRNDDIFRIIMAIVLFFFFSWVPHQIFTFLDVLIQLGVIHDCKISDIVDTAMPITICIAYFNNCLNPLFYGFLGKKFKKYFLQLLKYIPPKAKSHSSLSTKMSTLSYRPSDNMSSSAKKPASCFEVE
From the text: The experimental design involves determining the binding characteristics of adipocyte membranes harvested from two different anatomic sites at three different ages. Male Sprague-Dawley rats (Charles River Laboratories, Wilmington, Mass.) are used at 40, 70 and 100 days of age. Rats are killed by carbon dioxide inhalation on the morning of the experiment, and adipose tissue from the epididymal and retroperitoneal depots is quickly excised and placed in cold saline. The spermatic artery and vein are removed from the epididymal fat, and brown fat deposits are dissected away from the retroperitoneal depot. The adipose tissue is weighed, minced into small pieces, and approximately 10 g each transferred to a flask containing 25 ml of Krebs-Ringer-bicarbonate buffer (KRB), 6 mM glucose and 50 mg of collagenase, pH 7.4. […] Intact adipocytes dissociated from the tissue pass freely into waiting tubes, while the undigested tissue is trapped on the screen. The tubes containing the adipocytes are washed an additional 4× with 20 ml each of cold Tris buffer (10 mM Tris HCl, pH 8.0) by first allowing the adipocytes to separate from the digestion medium by flotation, removing the infranatant through polyethylene tubing attached to a syringe, resuspending the cells in the Tris buffer, and repeating this procedure. Adipocyte membranes used for binding studies are prepared as follows. […] Following centrifugation, the fat cake and supernatant are carefully removed, and the pellet resuspended in 1 ml of Tris buffer. Protein content of the high speed pellet is determined, the resuspended protein is either assayed immediately or stored at -75° before binding assays are performed. […] The assay is initiated by the addition of the membrane protein, followed by incubation at 22° C. for 30 minutes in a slowly shaking water bath. Separation of bound from free radioactivity is achieved using any appropriate filtration apparatus. We use either a Millipore or Brandel model harvesting apparatus containing a Durapore or Whatman GF/B filter, followed by 6 additional rinses with 5 ml each of cold saline. The filters are placed in tubes, and radioactivity measured in a gamma scintillation counter programmed to correct for the half-life of the isotope. Using this experimental protocol, both the affinity (KD) and number of binding sites (Bmax) for angiotensin II on the adipocyte membrane can be calculated. The relative affinities of different anatomically distinct adipocyte membranes for a variety of peptide and nonpeptide antagonists can also be determined. […] Concentration ranges can be altered dependent upon the affinity of the particular antagonist for the fat cell membrane receptor.

AII receptor [3] = target: T1, AII receptor; assay: Displacement of 125I[Sar,Ile]AII binding in rat retroperitoneal fat cell membranes
From the text: The experimental design involves determining the binding characteristics of adipocyte membranes harvested from two different anatomic sites at three different ages. Male Sprague-Dawley rats (Charles River Laboratories, Wilmington, Mass.) are used at 40, 70 and 100 days of age. Rats are killed by carbon dioxide inhalation on the morning of the experiment, and adipose tissue from the epididymal and retroperitoneal depots is quickly excised and placed in cold saline. The spermatic artery and vein are removed from the epididymal fat, and brown fat deposits are dissected away from the retroperitoneal depot. […] Protein content of the high speed pellet is determined, the resuspended protein is either assayed immediately or stored at -75° before binding assays are performed. […] Separation of bound from free radioactivity is achieved using any appropriate filtration apparatus. […] The filters are placed in tubes, and radioactivity measured in a gamma scintillation counter programmed to correct for the half-life of the isotope. Using this experimental protocol, both the affinity (KD) and number of binding sites (Bmax) for angiotensin II on the adipocyte membrane can be calculated. The relative affinities of different anatomically distinct adipocyte membranes for a variety of peptide and nonpeptide antagonists can also be determined. […]

IC50 (AII receptor [2]; Epididymal IC50 for displacement of 125I[Sar,Ile]AII binding, rat epididymal fat cell membranes (Table 8)): 0.0146 µM
Compound: CCCCc1nc2ccc([C@@]3(C)C[C@@H]4CCCN4O3)cc2c(=O)n1Cc1ccc(-c2ccccc2-c2nnn[nH]2)cc1 (racemic) [cis-(+/-)-2-butyl-6-(hexahydro-2-methylpyrrolo[1,2-b]isoxazol-2-yl)-3-[[2'-(1H-tetrazol-5-yl)[1,1-biphenyl]-4-yl]methyl]-4(3H)-quinazolinone sodium salt]
Bmax, epididymal adipocyte AII receptor binding (adipocyte AII receptor): 31.8 fmole/mg protein
Adipocyte Cell Volume (epididymal adipocytes): 187 p1
Avg. Daily Food Intake, % Change From Control [1]: -7%
Avg. Weight Gain, % Change From Control [1]: -55%
Epididymal Fat Weight, % Change From Control [1]: -17%
Final Body Weight, % Change From Control [1]: -7%
Retroperitoneal Fat Weight, % Change From Control [1]: -11%
Avg. Daily Food Intake [1]: 30.4 g
Avg. Weight Gain [1]: 25 g
Epididymal Fat Weight [1]: 4.33 g
Final Body Weight [1]: 424 g
Retroperitoneal Fat Weight [1]: 4.35 g

Compound: CCCCc1nc(Cl)c(CO)n1Cc1ccc(-c2ccccc2-c2nnn[nH]2)cc1 [2-n-butyl-4-chloro-5-hydroxymethyl-1-[(2'-(1H-tetrazol-5-yl)biphenyl-4-yl)methyl]imidazole, reference compound]
Bmax, epididymal adipocyte AII receptor binding (adipocyte AII receptor): 24.7 fmole/mg protein
Adipocyte Cell Volume (epididymal adipocytes): 163 p1
Avg. Daily Food Intake, % Change From Control [1]: -8%
Avg. Weight Gain, % Change From Control [1]: -38%
Epididymal Fat Weight, % Change From Control [1]: -21%
Final Body Weight, % Change From Control [1]: -5%
Retroperitoneal Fat Weight, % Change From Control [1]: -16%
Avg. Daily Food Intake [1]: 30.1 g
Avg. Weight Gain [1]: 35 g
Epididymal Fat Weight [1]: 4.10 g
Final Body Weight [1]: 431 g
Retroperitoneal Fat Weight [1]: 4.10 g

Compound: Cc1cc(Cn2cnc3c2C[C@@H](C(=O)O)N(C(=O)C(c2ccccc2)c2ccccc2)C3)ccc1N(C)C [((S)-)-[[4-(di-methylamino)-3-methylphenyl]methyl-5-(diphenylacetyl)-4,5,6,7-tetrahydro-1H-imidazo[4,5-c]-pyridine-6-carboxylic acid, reference compound]
IC50 (AII receptor [3]): 242 µM
IC50 (AII receptor [2]; Inhibitory Constants (IC50) for displacement of 125I[Sar,Ile]AII binding, Epididymal, rat epididymal fat cell membranes, 1 nM radioligand, 1-4 assays): 173 µM
